Our source for the Activity, IC50 and Ratio IC50 values is ChEMBL document CHEMBL4251656, “Design, synthesis, and biological evaluation of novel catecholopyrimidine based PDE4 inhibitor for the treatment of atopic dermatitis” (Eur J Med Chem, 2018).

The subject of data set [1] is Mus musculus. The data set is described as follows: Reversal of DNCB-induced atopic dermatitis-like symptoms in Balb/c mouse assessed as reduction in excoriation administered topically once daily starting from day 6 post DNCB treatment up to 34 days. It is filed as functional, organism-based.
Data set [2] has as its target Dual 3',5'-cyclic-AMP and -GMP phosphodiesterase 11A (Homo sapiens, UniProt Q9HCR9). As to the kind of experiment: Inhibition of PDE11A (unknown origin) using cAMP as substrate after 1 hr by LANCE TR-FRET assay. On the technique in general: In TR-FRET formats the signal depends on donor and acceptor labels being close together.
The test system of data set [3] is Mus musculus. As to the kind of experiment: Toxicity in Balb/c mouse assessed as induction of allergy administered topically once daily up to 34 days. It is filed as organism-based. Conditions: in vivo, topical_or_ocular, 816 h.
The species named for the next data set is Homo sapiens. As to the kind of experiment: Selectivity ratio of IC50 for nhibition of recombinant human N-terminal GST-tagged PDE4D7 (2 to 748 residues) expressed in baculovirus infected Sf9 cells to IC50 for recombinant full length human N-terminal GST-tagged PDE4B1 expressed in baculovirus infected Sf9 cells.
Data set [4] concerns Mus musculus. The data set is described as follows: Reversal of DNCB-induced atopic dermatitis-like symptoms in Balb/c mouse assessed as reduction in hyperkeratosis administered topically once daily starting from day 6 post DNCB treatment up to 34 days by hematoxylin and eosin staining based light microscopic method. It is filed as functional, organism-based.
For data set [5], the system named is Mus musculus. The data set is described as follows: Toxicity in Balb/c mouse assessed as effect on skin architecture administered topically once daily up to 34 days by hematoxylin and eosin staining based light microscopic method. Conditions: in vivo, topical_or_ocular, 816 h. It is filed as organism-based.
Data set [6] deals with Mus musculus. As to the kind of experiment: Reversal of DNCB-induced atopic dermatitis-like symptoms in Balb/c mouse assessed as reduction in skin scaling or dryness administered topically once daily starting from day 6 post DNCB treatment up to 34 days. It is filed as functional, organism-based.
For data set [7], the system named is Mus musculus. The data set is described as follows: Reversal of DNCB-induced atopic dermatitis-like symptoms in Balb/c mouse assessed as reduction in epidermal hyperplasia administered topically once daily starting from day 6 post DNCB treatment up to 34 days by hematoxylin and eosin staining based light microscopic method. Format: functional, organism-based.

Data set [8] deals with Mus musculus. The data set is described as follows: Reversal of DNCB-induced atopic dermatitis-like symptoms in Balb/c mouse assessed as reduction in serum Ig-E level administered topically once daily starting from day 6 post DNCB treatment up to 34 days. It is filed as functional, organism-based.
Data set [9] has as its system Mus musculus. The data set is described as follows: Reversal of DNCB-induced atopic dermatitis-like symptoms in Balb/c mouse assessed as dorsal skin thickness administered topically once daily starting from day 6 post DNCB treatment up to 34 days (reference value: 1.19 millimeter). It is filed as functional.
In data set [10] the test system is Mus musculus. As to the kind of experiment: Reversal of DNCB-induced atopic dermatitis-like symptoms in Balb/c mouse assessed as reduction in TNF-alpha level in skin administered topically once daily starting from day 6 post DNCB treatment up to 34 days. It is filed as functional, organism-based.
The subject of data set [11] is Mus musculus. As to the kind of experiment: Reversal of DNCB-induced atopic dermatitis-like symptoms in Balb/c mouse assessed as reduction in erythema administered topically once daily starting from day 6 post DNCB treatment up to 34 days. It is filed as functional, organism-based.
For data set [12], the system named is Mus musculus. As to the kind of experiment: Reversal of DNCB-induced atopic dermatitis-like symptoms in Balb/c mouse assessed as reduction in epidermal thickness administered topically once daily starting from day 6 post DNCB treatment up to 34 days by hematoxylin and eosin staining based light microscopic method. It is filed as functional, organism-based.

Data set [13] concerns Mus musculus. The data set is described as follows: Reversal of DNCB-induced atopic dermatitis-like symptoms in Balb/c mouse assessed as reduction in edema administered topically once daily starting from day 6 post DNCB treatment up to 34 days. Format: functional, organism-based.
Data set [14] has as its system Mus musculus. The data set is described as follows: Reversal of DNCB-induced atopic dermatitis-like symptoms in Balb/c mouse assessed as reduction in inflammatory cell infilteration in epidermal and dermal region of skin administered topically once daily starting from day 6 post DNCB treatment up to 34 days by toluidine blue staining based light microscopic method. Format: functional, organism-based.

For data set [15], the system named is Mus musculus. As to the kind of experiment: Reversal of DNCB-induced atopic dermatitis-like symptoms in Balb/c mouse assessed as reduction in hemorrhage administered topically once daily starting from day 6 post DNCB treatment up to 34 days. Format: functional, organism-based.
In data set [16] the test system is Mus musculus. As to the kind of experiment: Reversal of DNCB-induced atopic dermatitis-like symptoms in Balb/c mouse assessed as reduction in signs of edema administered topically once daily starting from day 6 post DNCB treatment up to 34 days by hematoxylin and eosin staining based light microscopic method. It is filed as functional, organism-based.
The test system of data set [17] is Mus musculus. The data set is described as follows: Reversal of DNCB-induced atopic dermatitis-like symptoms in Balb/c mouse assessed as reduction in skin erosion administered topically once daily starting from day 6 post DNCB treatment up to 34 days. Format: functional, organism-based.
Data set [18] has as its target T1, 3',5'-cyclic-AMP phosphodiesterase 4B (Homo sapiens, UniProt Q07343). The data set is described as follows: Inhibition of recombinant human full length N-terminal GST-tagged PDE4B1 expressed in baculovirus infected Sf9 cells using cAMP as substrate after 1 hr by LANCE TR-FRET assay.
Data set [19] has as its target T2, 3',5'-cyclic-AMP phosphodiesterase 4A (Homo sapiens, UniProt P27815). As to the kind of experiment: Inhibition of recombinant full length human N-terminal GST-tagged PDE4A1 expressed in baculovirus infected Sf9 cells using cAMP as substrate after 1 hr by LANCE TR-FRET assay.
For data set [20], the system named is Mus musculus. The data set is described as follows: Reversal of DNCB-induced atopic dermatitis-like symptoms in Balb/c mouse assessed as reduction in scratching frequency administered topically once daily starting from day 6 post DNCB treatment up to 34 days. Format: functional, organism-based.
The test system of data set [21] is Mus musculus. As to the kind of experiment: Reversal of DNCB-induced atopic dermatitis-like symptoms in Balb/c mouse assessed as reduction in hypertrophy administered topically once daily starting from day 6 post DNCB treatment up to 34 days by hematoxylin and eosin staining based light microscopic method. Format: functional, organism-based.
The target of data set [22] is 3',5'-cyclic-AMP phosphodiesterase 4D (Homo sapiens, UniProt Q08499). As to the kind of experiment: Inhibition of recombinant human N-terminal GST-tagged PDE4D7 (2 to 748 residues) expressed in baculovirus infected Sf9 cells using cAMP as substrate after 1 hr by LANCE TR-FRET assay.
Sequence of 3',5'-cyclic-AMP phosphodiesterase 4D (Q08499 whole entry, the tested form may be a part): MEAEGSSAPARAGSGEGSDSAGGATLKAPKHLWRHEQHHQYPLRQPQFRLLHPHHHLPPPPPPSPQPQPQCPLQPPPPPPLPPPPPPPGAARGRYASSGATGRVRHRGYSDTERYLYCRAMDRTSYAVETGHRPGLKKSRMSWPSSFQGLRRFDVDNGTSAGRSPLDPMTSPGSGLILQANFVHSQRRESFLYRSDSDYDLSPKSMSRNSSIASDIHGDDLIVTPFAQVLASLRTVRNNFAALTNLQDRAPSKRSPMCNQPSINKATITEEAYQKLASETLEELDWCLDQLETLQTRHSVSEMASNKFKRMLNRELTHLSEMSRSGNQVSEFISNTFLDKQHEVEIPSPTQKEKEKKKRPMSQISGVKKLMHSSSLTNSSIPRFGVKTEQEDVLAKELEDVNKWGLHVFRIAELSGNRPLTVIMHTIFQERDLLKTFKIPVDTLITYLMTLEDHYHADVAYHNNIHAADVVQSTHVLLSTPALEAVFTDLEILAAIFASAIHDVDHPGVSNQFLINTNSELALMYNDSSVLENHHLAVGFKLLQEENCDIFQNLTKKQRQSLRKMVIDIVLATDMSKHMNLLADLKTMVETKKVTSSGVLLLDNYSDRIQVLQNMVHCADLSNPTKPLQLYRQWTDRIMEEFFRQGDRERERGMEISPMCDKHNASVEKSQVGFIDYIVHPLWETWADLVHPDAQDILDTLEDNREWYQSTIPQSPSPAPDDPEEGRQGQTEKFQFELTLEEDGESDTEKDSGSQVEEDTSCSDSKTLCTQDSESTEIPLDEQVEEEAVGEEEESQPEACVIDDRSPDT
In data set [23] the target is T2, 3',5'-cyclic-AMP phosphodiesterase 4A. As to the kind of experiment: Inhibition of recombinant human N-terminal GST-tagged PDE4A4 (2 to 886 residues) expressed in baculovirus infected Sf9 cells using cAMP as substrate after 1 hr by LANCE TR-FRET assay.
Data set [24] has as its target T1, 3',5'-cyclic-AMP phosphodiesterase 4B. As to the kind of experiment: Inhibition of recombinant full length human N-terminal GST-tagged PDE4B1 expressed in baculovirus infected Sf9 cells using cAMP as substrate after 1 hr by LANCE TR-FRET assay.
In data set [25] the target is 3',5'-cyclic-AMP phosphodiesterase 4C (Homo sapiens, UniProt Q08493). The data set is described as follows: Inhibition of recombinant human full length N-terminal GST-tagged PDE4C1 expressed in baculovirus infected Sf9 cells using cAMP as substrate after 1 hr by LANCE TR-FRET assay.
Sequence of 3',5'-cyclic-AMP phosphodiesterase 4C (Q08493 whole entry): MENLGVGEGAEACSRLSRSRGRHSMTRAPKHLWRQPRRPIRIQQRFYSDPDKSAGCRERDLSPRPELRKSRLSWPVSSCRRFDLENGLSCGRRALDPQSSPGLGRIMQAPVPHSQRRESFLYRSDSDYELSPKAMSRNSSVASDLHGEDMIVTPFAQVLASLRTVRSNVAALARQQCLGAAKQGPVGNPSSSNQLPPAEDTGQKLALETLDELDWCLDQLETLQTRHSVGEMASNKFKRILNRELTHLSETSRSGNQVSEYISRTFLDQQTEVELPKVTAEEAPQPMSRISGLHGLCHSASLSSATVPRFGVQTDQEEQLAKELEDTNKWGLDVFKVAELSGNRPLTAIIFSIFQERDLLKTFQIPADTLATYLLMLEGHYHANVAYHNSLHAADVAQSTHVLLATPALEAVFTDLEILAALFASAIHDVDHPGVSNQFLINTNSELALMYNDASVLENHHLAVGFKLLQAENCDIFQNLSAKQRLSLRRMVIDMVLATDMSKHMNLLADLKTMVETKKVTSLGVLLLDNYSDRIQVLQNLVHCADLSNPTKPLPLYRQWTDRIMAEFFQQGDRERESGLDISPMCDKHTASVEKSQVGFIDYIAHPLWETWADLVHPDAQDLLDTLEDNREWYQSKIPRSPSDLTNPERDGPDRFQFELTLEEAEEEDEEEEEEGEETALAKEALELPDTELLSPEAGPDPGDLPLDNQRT
The target of data set [26] is cGMP-inhibited 3',5'-cyclic phosphodiesterase 3B (Homo sapiens, UniProt Q13370). The data set is described as follows: Inhibition of recombinant human N-terminal GST-tagged PDE3B (592-end residues) expressed in baculovirus infected Sf9 cells using cAMP as substrate after 1 hr by LANCE TR-FRET assay.

Usually IC50 stands for the concentration that gives 50% inhibition.

Each structure is given as a SMILES string. Calls of active or inactive are those of the source. No cut-off for these calls is given here.

T1 sequence (Q07343 whole entry): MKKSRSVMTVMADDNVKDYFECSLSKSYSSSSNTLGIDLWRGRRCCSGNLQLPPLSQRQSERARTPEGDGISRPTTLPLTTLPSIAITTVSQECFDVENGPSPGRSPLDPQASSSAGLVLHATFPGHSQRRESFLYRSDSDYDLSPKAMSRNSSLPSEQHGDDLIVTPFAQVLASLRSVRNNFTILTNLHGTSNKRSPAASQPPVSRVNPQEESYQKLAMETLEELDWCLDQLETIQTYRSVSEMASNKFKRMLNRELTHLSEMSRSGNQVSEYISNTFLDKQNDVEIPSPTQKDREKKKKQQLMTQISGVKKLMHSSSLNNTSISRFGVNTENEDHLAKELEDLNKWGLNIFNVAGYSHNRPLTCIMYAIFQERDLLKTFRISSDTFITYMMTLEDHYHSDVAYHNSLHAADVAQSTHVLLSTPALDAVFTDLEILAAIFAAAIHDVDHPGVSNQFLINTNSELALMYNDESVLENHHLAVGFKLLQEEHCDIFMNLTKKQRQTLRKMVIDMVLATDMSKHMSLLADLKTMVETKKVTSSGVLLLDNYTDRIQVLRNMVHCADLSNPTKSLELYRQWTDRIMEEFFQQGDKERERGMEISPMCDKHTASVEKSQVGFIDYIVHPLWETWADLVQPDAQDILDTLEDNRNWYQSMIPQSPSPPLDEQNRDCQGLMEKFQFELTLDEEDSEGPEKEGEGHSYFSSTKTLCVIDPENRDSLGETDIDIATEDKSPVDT
T2 sequence (P27815 whole entry): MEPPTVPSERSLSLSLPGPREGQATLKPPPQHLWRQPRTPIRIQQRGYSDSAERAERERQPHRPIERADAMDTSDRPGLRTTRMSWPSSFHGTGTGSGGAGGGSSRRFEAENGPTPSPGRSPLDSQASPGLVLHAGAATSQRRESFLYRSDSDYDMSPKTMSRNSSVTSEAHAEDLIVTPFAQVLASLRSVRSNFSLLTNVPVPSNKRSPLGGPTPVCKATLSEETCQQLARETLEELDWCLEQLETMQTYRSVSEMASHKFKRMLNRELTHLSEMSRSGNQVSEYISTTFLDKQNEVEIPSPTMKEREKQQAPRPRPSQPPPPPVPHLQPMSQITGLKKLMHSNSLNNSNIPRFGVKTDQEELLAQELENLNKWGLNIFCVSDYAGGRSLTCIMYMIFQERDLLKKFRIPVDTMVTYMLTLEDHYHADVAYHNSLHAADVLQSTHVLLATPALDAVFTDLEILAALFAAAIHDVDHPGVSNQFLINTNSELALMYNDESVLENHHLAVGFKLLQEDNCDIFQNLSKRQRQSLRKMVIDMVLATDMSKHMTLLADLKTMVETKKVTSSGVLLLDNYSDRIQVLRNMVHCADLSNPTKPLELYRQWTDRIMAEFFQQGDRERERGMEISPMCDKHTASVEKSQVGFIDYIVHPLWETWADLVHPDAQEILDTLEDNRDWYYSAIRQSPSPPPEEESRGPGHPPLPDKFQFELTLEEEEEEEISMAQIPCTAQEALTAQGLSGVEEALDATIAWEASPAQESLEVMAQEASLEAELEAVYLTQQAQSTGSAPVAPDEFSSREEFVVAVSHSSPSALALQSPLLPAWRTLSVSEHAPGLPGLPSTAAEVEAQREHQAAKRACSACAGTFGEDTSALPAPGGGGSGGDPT
Sequence of Dual 3',5'-cyclic-AMP and -GMP phosphodiesterase 11A (Q9HCR9 whole entry): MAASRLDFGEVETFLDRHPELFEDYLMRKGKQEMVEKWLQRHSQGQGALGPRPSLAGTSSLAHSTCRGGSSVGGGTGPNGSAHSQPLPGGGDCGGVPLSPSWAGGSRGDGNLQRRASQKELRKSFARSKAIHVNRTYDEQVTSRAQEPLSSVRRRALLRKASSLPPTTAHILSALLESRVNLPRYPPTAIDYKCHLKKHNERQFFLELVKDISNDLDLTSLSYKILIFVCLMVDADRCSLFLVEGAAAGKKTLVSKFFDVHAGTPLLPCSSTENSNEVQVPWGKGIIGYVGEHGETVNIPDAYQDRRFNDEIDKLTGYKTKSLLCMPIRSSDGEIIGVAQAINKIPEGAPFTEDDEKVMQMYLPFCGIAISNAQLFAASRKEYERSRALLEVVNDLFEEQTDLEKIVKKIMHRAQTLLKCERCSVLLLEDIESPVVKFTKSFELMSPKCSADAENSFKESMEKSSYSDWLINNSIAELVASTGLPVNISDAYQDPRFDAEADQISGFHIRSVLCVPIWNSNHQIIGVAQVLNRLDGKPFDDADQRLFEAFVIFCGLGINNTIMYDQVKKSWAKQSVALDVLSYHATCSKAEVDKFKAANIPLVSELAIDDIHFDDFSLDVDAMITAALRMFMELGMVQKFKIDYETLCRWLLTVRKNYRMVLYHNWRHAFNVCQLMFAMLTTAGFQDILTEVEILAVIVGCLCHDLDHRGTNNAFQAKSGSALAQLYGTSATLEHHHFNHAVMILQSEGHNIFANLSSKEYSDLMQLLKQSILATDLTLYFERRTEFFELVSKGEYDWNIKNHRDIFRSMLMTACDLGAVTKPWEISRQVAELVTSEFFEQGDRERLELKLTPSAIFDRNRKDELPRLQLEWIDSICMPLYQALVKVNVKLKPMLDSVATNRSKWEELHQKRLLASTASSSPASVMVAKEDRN

Turning to `COc1ccc(-c2nc(C(F)(F)F)ncc2C(=O)Nc2ccncc2)cc1OC`, the outcome in the data set on Mus musculus [1], in the data set on Mus musculus [4], in the data set on Mus musculus [6], with Mus musculus [7], with Mus musculus [8] and with Mus musculus [10] was Active. In addition, the result with Mus musculus [11], in the data set on Mus musculus [12], in the data set with Mus musculus [13], in the data set with Mus musculus [14], in the data set on Mus musculus [15] and with Mus musculus [16] was Active. Further, the result in the data set with Mus musculus [17], with Mus musculus [20] and in the data set on Mus musculus [21] was Active. Also, the 50% inhibitory concentration (IC50) is 250 nM in [2], 15 nM in data set [18] and 98 nM in data set [19]. Also, the Activity result is listed as “Non-Toxic” in the data set with Mus musculus [3], “Non-Toxic” in the data set with Mus musculus [5] and 0.71 mm in the data set on Mus musculus [9]. Also, in the data set listed under Homo sapiens, the Ratio IC50 was 7.

Turning to `COc1ccc(CCNC(=O)c2cnc(SC)nc2N2CCOCC2)cc1OC`, the 50% inhibitory concentration (IC50) was determined as 659 nM in data set [2]; 136 nM in [22]; 284 nM in data set [23]; 61 nM in [24]; 61 nM in data set [18]; 326 nM in [25].

`COc1ccc(NC(=O)c2cnc(C(F)(F)F)nc2N2CCOCC2)cc1OC`: the IC50 in data set [2] came to 1500 nM; in [22] it was 385 nM; in [23], 100 nM; in [26], 950 nM; in [18], 67 nM; in data set [19] it was 678 nM. The IC50 in [25] turned out to be 156 nM.

For the compound `COc1ccc(-c2nc(C(F)(F)F)ncc2C(=O)Nc2c(C(C)C)cccc2C(C)C)cc1OC`, the half-inhibitory concentration (IC50) in [24] stood at 222 nM.

Consider `COc1ccc(-c2nc(C(F)(F)F)ncc2C(=O)Nc2c(Cl)cncc2Cl)cc1OC`, for which the IC50 was 245 nM in [2]; 360 nM in data set [22]; 89 nM in data set [23]; 321 nM in data set [26]; 44 nM in data set [18]; 281 nM in data set [19]. Further, the half-maximal inhibitory concentration (IC50) in data set [25] is 39 nM.

With `COc1ccc(CCNC(=O)c2cnc(SC)nc2N2CCN(CCO)CC2)cc1OC`, the IC50 in data set [24] amounted to 238 nM.

As for `COc1ccc(NC(=O)c2cnc(SC)nc2N2CCOCC2)cc1OC`, the figures for the IC50 in [2], in data set [18] and in data set [19] were 480 nM, 31 nM and 756 nM, respectively.

For the compound `COc1ccc(CCNC(=O)c2cnc(C(F)(F)F)nc2N2CCOCC2)cc1OC`, in data set [24], the IC50 is 150 nM.
